From patent publication US20210395217A1, “PESTICIDALLY ACTIVE AZOLE-AMIDE COMPOUNDS” (SYNGENTA PARTICIPATIONS AG, priority 2018, published 2021)

Tests used:
Assay type in all cases: in vivo
Diabrotica balteata = test: Example B1: Diabrotica balteata (corn root worm), maize sprouts sprayed, L2 larvae; details: 96 h, application rate of 200 ppm, 4 days after infestation, read-out: control in at least one of the two categories (mortality or growth inhibition)
Experimental: Example B1: Diabrotica balteata (Corn Root Worm)
Maize sprouts placed onto an agar layer in 24-well microtiter plates were treated with aqueous test solutions prepared from 10′000 ppm DMSO stock solutions by spraying. After drying, the plates were infested with L2 larvae (6 to 10 per well). The samples were assessed for mortality and growth inhibition in comparison to untreated samples 4 days after infestation.
The following compounds gave an effect of at least 80% control in at least one of the two categories (mortality or growth inhibition) at an application rate of 200 ppm: […]

Chilo suppressalis = test: Example B3: Chilo suppressalis (striped rice stem borer), artificial diet, L2 larvae; details: 144 h, application rate of 200 ppm, 6 days after infestation, read-out: control in at least one of the three categories (mortality, anti-feedant effect, or growth inhibition)
Experimental: Example B3: Chilo suppressalis (Striped Rice Stem Borer)
24-well microtiter plates with artificial diet were treated with aqueous test solutions prepared from 10′000 ppm DMSO stock solutions by pipetting. After drying, the plates were infested with L2 larvae (6-8 per well). The samples were assessed for mortality, anti-feeding effect, and growth inhibition in comparison to untreated samples 6 days after infestation. Control of Chilo suppressalis by a test sample is given when at least one of the categories mortality, anti-feedant effect, and growth inhibition is higher than the untreated sample.

Plutella xylostella [1] = test: Example B4: Plutella xylostella (diamond back moth), artificial diet, 24-well, eggs; details: 192 h, application rate of 200 ppm, 8 days after infestation, 24-well plates, read-out: control in at least one of the two categories (mortality or growth inhibition)
Experimental: Example B4: Plutella xylostella (Diamond Back Moth)
24-well microtiter plates with artificial diet were treated with aqueous test solutions prepared from 10′000 ppm DMSO stock solutions by pipetting. After drying, Plutella eggs were pipetted through a plastic stencil onto a gel blotting paper and the plate was closed with it. The samples were assessed for mortality and growth inhibition in comparison to untreated samples 8 days after infestation. The following compounds gave an effect of at least 80% control in at least one of the two categories (mortality or growth inhibition) at an application rate of 200 ppm: […]

Plutella xylostella [2] = test: Example B10: Plutella xylostella (diamondback moth), artificial diet, 96-well, eggs; details: 216 h, application rate of 500 ppm, 9 days after infestation, 96-well plates
Experimental: Example B10: Plutella xylostella (Diamondback Moth)
96-well microtiter plates containing artificial diet were treated with aqueous test solutions, prepared from 10′000 ppm DMSO stock solutions, by a liquid handling robot. After drying, eggs (˜30 per well) were infested onto a netted lid which was suspended above the diet. The eggs hatch and L1 larvae move down to the diet. The samples were assessed for mortality 9 days after infestation.
The following compounds gave an effect of at least 80% average mortality at an application rate of 500 ppm: […]

Spodoptera littoralis = test: Example B7: Spodoptera littoralis (Egyptian cotton leaf worm), cotton leaf discs sprayed, L1 larvae; details: foliar, 72 h, application rate of 200 ppm, 3 days after infestation, read-out: control in at least one of the three categories (mortality, anti-feedant effect, or growth inhibition)
Experimental: Example B7: Spodoptera littoralis (Egyptian Cotton Leaf Worm)
Cotton leaf discs were placed onto agar in 24-well microtiter plates and sprayed with aqueous test solutions prepared from 10′000 ppm DMSO stock solutions. After drying the leaf discs were infested with five L1 larvae. The samples were assessed for mortality, anti-feeding effect, and growth inhibition in comparison to untreated samples 3 days after infestation. Control of Spodoptera littoralis by a test sample is given when at least one of the categories mortality, anti-feedant effect, and growth inhibition is higher than the untreated sample.

CC(NC(=O)c1cc(Br)cc(C(F)(F)F)c1)c1nc(C2CC2)nn1-c1ccc(C#N)cn1 (stereo not shown) [Compound F11, 3-bromo-N-[1-[2-(5-cyano-2-pyridyl)-5-cyclopropyl-1,2,4-triazol-3-yl]ethyl]-5-(trifluoromethyl) benzamide]
≥ 80%: percent control (mortality or growth inhibition) at 200 ppm (Diabrotica balteata) | percent control (mortality, anti-feedant effect or growth inhibition) at 200 ppm (Chilo suppressalis) | percent control (mortality or growth inhibition) at 200 ppm (Plutella xylostella [1]) | mortality at 500 ppm (Plutella xylostella [2])

CC(NC(=O)c1cc(C(F)(F)F)cc(C(F)(F)F)c1)c1ncnn1-c1ccc(C#N)cn1 (stereo not shown) [Compound F3, N-[1-[2-(5-cyano-2-pyridyl)-1,2,4-triazol-3-yl]ethyl]-3,5-bis(trifluoromethyl) benzamide]
≥ 80%: percent control (mortality or growth inhibition) at 200 ppm (Diabrotica balteata) | percent control (mortality, anti-feedant effect or growth inhibition) at 200 ppm (Chilo suppressalis) | percent control (mortality or growth inhibition) at 200 ppm (Plutella xylostella [1]) | percent control (mortality, anti-feedant effect or growth inhibition) at 200 ppm (Spodoptera littoralis) | mortality at 500 ppm (Plutella xylostella [2])

CC(NC(=O)c1cc(Br)cc(OCC(F)F)c1)c1ncnn1-c1ccc(C#N)cn1 (stereo not shown) [Compound F20, 3-bromo-N-[1-[2-(5-cyano-2-pyridyl)-1,2,4-triazol-3-yl]ethyl]-5-(2,2-difluoroethoxy) benzamide]
≥ 80%: percent control (mortality, anti-feedant effect or growth inhibition) at 200 ppm (Chilo suppressalis) | percent control (mortality or growth inhibition) at 200 ppm (Plutella xylostella [1]) | percent control (mortality, anti-feedant effect or growth inhibition) at 200 ppm (Spodoptera littoralis) | mortality at 500 ppm (Plutella xylostella [2])

CC(NC(=O)c1cc(OCC(F)F)cc(C(F)(F)F)c1)c1ncnn1-c1ccc(C#N)cn1 (stereo not shown) [Compound F18, N-[1-[2-(5-cyano-2-pyridyl)-1,2,4-triazol-3-yl]ethyl]-3-(2,2-difluoroethoxy)-5-(trifluoromethyl) benzamide]
≥ 80%: percent control (mortality or growth inhibition) at 200 ppm (Diabrotica balteata) | percent control (mortality, anti-feedant effect or growth inhibition) at 200 ppm (Chilo suppressalis) | percent control (mortality or growth inhibition) at 200 ppm (Plutella xylostella [1]) | percent control (mortality, anti-feedant effect or growth inhibition) at 200 ppm (Spodoptera littoralis) | mortality at 500 ppm (Plutella xylostella [2])

CC(NC(=O)c1cc(Cl)cc(Cl)c1)c1ncnn1-c1ccc(C#N)cn1 (stereo not shown) [Compound F22, 3,5-dichloro-N-[1-[2-(5-cyano-2-pyridyl)-1,2,4-triazol-3-yl]ethyl]benzamide]
≥ 80%: percent control (mortality or growth inhibition) at 200 ppm (Diabrotica balteata) | percent control (mortality, anti-feedant effect or growth inhibition) at 200 ppm (Chilo suppressalis) | percent control (mortality or growth inhibition) at 200 ppm (Plutella xylostella [1]) | percent control (mortality, anti-feedant effect or growth inhibition) at 200 ppm (Spodoptera littoralis)

Cc1nc(C(C)NC(=O)c2cc(C(F)(F)F)cc(C(F)(F)F)c2)n(-c2ccc(C#N)cn2)n1 (stereo not shown) [Compound F7, N-[1-[2-(5-cyano-2-pyridyl)-5-methyl-1,2,4-triazol-3-yl]ethyl]-3,5-bis (trifluoromethyl) benzamide]
≥ 80%: percent control (mortality or growth inhibition) at 200 ppm (Diabrotica balteata) | percent control (mortality or growth inhibition) at 200 ppm (Plutella xylostella [1]) | percent control (mortality, anti-feedant effect or growth inhibition) at 200 ppm (Spodoptera littoralis)

CC(NC(=O)c1cc(OC(F)(F)F)cc(C(F)(F)F)c1)c1ncnn1-c1ccc(C#N)cn1 (stereo not shown) [Compound F17, N-[1-[2-(5-cyano-2-pyridyl)-1,2,4-triazol-3-yl]ethyl]-3-(trifluoromethoxy)-5-(trifluoromethyl) benzamide]
≥ 80%: percent control (mortality or growth inhibition) at 200 ppm (Diabrotica balteata) | percent control (mortality, anti-feedant effect or growth inhibition) at 200 ppm (Chilo suppressalis) | percent control (mortality or growth inhibition) at 200 ppm (Plutella xylostella [1]) | percent control (mortality, anti-feedant effect or growth inhibition) at 200 ppm (Spodoptera littoralis) | mortality at 500 ppm (Plutella xylostella [2])

CC(NC(=O)c1cc(SC(F)(F)F)cc(C(F)(F)F)c1)c1ncnn1-c1ccc(C#N)cn1 (stereo not shown) [Compound F5, N-[1-[2-(5-cyano-2-pyridyl)-1,2,4-triazol-3-yl]ethyl]-3-(trifluoromethyl)-5-(trifluoromethylsulfanyl) benzamide]
≥ 80%: percent control (mortality or growth inhibition) at 200 ppm (Diabrotica balteata) | percent control (mortality, anti-feedant effect or growth inhibition) at 200 ppm (Chilo suppressalis) | percent control (mortality or growth inhibition) at 200 ppm (Plutella xylostella [1]) | percent control (mortality, anti-feedant effect or growth inhibition) at 200 ppm (Spodoptera littoralis) | mortality at 500 ppm (Plutella xylostella [2])

CC(NC(=O)c1cc(Br)cc(OCC(F)(F)F)c1)c1ncnn1-c1ccc(C#N)cn1 (stereo not shown) [Compound F19, 3-bromo-N-[1-[2-(5-cyano-2-pyridyl)-1,2,4-triazol-3-yl]ethyl]-5-(2,2,2-trifluoroethoxy) benzamide]
≥ 80%: percent control (mortality, anti-feedant effect or growth inhibition) at 200 ppm (Chilo suppressalis) | percent control (mortality or growth inhibition) at 200 ppm (Plutella xylostella [1]) | percent control (mortality, anti-feedant effect or growth inhibition) at 200 ppm (Spodoptera littoralis) | mortality at 500 ppm (Plutella xylostella [2])

CC(NC(=O)c1cc(OC(F)F)cc(C(F)(F)F)c1)c1ncnn1-c1ccc(C#N)cn1 (stereo not shown) [Compound F13, N-[1-[2-(5-cyano-2-pyridyl)-1,2,4-triazol-3-yl]ethyl]-3-(difluoromethoxy)-5-(trifluoromethyl) benzamide]
≥ 80%: percent control (mortality or growth inhibition) at 200 ppm (Diabrotica balteata) | percent control (mortality or growth inhibition) at 200 ppm (Plutella xylostella [1]) | percent control (mortality, anti-feedant effect or growth inhibition) at 200 ppm (Spodoptera littoralis)

CC(NC(=O)c1cc(OCC(F)(F)F)cc(C(F)(F)F)c1)c1ncnn1-c1ccc(C#N)cn1 (stereo not shown) [Compound F21, N-[1-[2-(5-cyano-2-pyridyl)-1,2,4-triazol-3-yl]ethyl]-3-(2,2,2-trifluoroethoxy)-5-(trifluoromethyl) benzamide]
≥ 80%: percent control (mortality or growth inhibition) at 200 ppm (Diabrotica balteata) | percent control (mortality, anti-feedant effect or growth inhibition) at 200 ppm (Chilo suppressalis) | percent control (mortality or growth inhibition) at 200 ppm (Plutella xylostella [1]) | percent control (mortality, anti-feedant effect or growth inhibition) at 200 ppm (Spodoptera littoralis) | mortality at 500 ppm (Plutella xylostella [2])

CC(NC(=O)c1cc(C(F)F)cc(C(F)(F)F)c1)c1ncnn1-c1ccc(C#N)cn1 (stereo not shown) [Compound F15, N-[1-[2-(5-cyano-2-pyridyl)-1,2,4-triazol-3-yl]ethyl]-3-(difluoromethyl)-5-(trifluoromethyl) benzamide]
≥ 80%: percent control (mortality or growth inhibition) at 200 ppm (Diabrotica balteata) | percent control (mortality, anti-feedant effect or growth inhibition) at 200 ppm (Chilo suppressalis) | percent control (mortality or growth inhibition) at 200 ppm (Plutella xylostella [1]) | percent control (mortality, anti-feedant effect or growth inhibition) at 200 ppm (Spodoptera littoralis)

CC(NC(=O)c1cc(Br)cc(C(F)(F)F)c1)c1ncnn1-c1ccc(C#N)cn1 (stereo not shown) [Compound F14, 3-bromo-N-[1-[2-(5-cyano-2-pyridyl)-1,2,4-triazol-3-yl]ethyl]-5-(trifluoromethyl) benzamide]
≥ 80%: percent control (mortality or growth inhibition) at 200 ppm (Diabrotica balteata) | percent control (mortality or growth inhibition) at 200 ppm (Plutella xylostella [1]) | percent control (mortality, anti-feedant effect or growth inhibition) at 200 ppm (Spodoptera littoralis)

CC(NC(=O)c1cc(Br)cc(OC(F)F)c1)c1ncnn1-c1ccc(C#N)cn1 (stereo not shown) [Compound F1, 3-bromo-N-[1-[2-(5-cyano-2-pyridyl)-1,2,4-triazol-3-yl]ethyl]-5-( ) difluoromethoxy benzamide]
≥ 80%: percent control (mortality or growth inhibition) at 200 ppm (Diabrotica balteata) | percent control (mortality, anti-feedant effect or growth inhibition) at 200 ppm (Chilo suppressalis) | percent control (mortality or growth inhibition) at 200 ppm (Plutella xylostella [1]) | percent control (mortality, anti-feedant effect or growth inhibition) at 200 ppm (Spodoptera littoralis) | mortality at 500 ppm (Plutella xylostella [2])

CC(NC(=O)c1cc(C(F)(F)F)cc(C(F)(F)F)c1)c1nc(C2CC2)nn1-c1ccc(C#N)cn1 (stereo not shown) [Compound F10, N-[1-[2-(5-cyano-2-pyridyl)-5-cyclopropyl-1,2,4-triazol-3-yl]ethyl]-3,5-bis(trifluoromethyl) benzamide]
≥ 80%: percent control (mortality or growth inhibition) at 200 ppm (Diabrotica balteata) | percent control (mortality, anti-feedant effect or growth inhibition) at 200 ppm (Chilo suppressalis) | percent control (mortality or growth inhibition) at 200 ppm (Plutella xylostella [1]) | percent control (mortality, anti-feedant effect or growth inhibition) at 200 ppm (Spodoptera littoralis) | mortality at 500 ppm (Plutella xylostella [2])

CC(NC(=O)c1cc(Cl)cc(Br)c1)c1ncnn1-c1ccc(C#N)cn1 (stereo not shown) [Compound F23, 3-bromo-5-chloro-N-[1-[2-(5-cyano-2-pyridyl)-1,2,4-triazol-3-yl]ethyl]benzamide]
≥ 80%: percent control (mortality or growth inhibition) at 200 ppm (Diabrotica balteata) | percent control (mortality or growth inhibition) at 200 ppm (Plutella xylostella [1]) | percent control (mortality, anti-feedant effect or growth inhibition) at 200 ppm (Spodoptera littoralis)
